Patent US20250032651A1, “[177LU] LUTETIUM-PSMA I&T COMPOSITION AND DOSIMETRY, KIT, METHOD OF MAKING, AND METHOD OF USING THEREOF” (Curium US LLC, priority 2022, published 2025)

Test: Normal organ dosimetry Cycle 1: SPECT/CT, TIACs, OLINDA 2.2.3 absorbed radiation dose
Type: in vivo, human
Details: for Absorbed Dose, Mean / Absorbed Dose, max / Absorbed Dose, median / Absorbed Dose, min: n = 26
Description: This Example presents the biodistribution, dosimetry, and pharmacokinetics (PK) results of a PK/Dosimetry sub-study performed as part of a Phase III trial. Twenty-seven (27) patients were administered a target activity of 7.4±10% GBq of ^177Lu-PSMA-I&T and underwent single photon emission computed tomography (SPECT)/computed tomography (CT) imaging at four timepoints (4 h, 24 h, 48 h, and 168 h). Image data was analysed to compute time-activity curves (TACs) and subsequently time-integrated activity coefficients (TIACs) in each organ of interest and in organs showing appreciable and meaningful ^177Lu-PSMA-I&T activity. Organ Level Internal Dose Assessment (OLINDA 2.2.3) was used to compute organ and whole body absorbed radiation doses for each patient.
All participating sites underwent a rigorous site setup process during which all dose calibrators, scanners, and gamma counters used in the sub-study were calibrated. Sites were allowed to enroll patients in the sub-study only after the completion and approval of all site setup processes by Invicro. Patients underwent SPECT/CT imaging, with anatomical coverage typically extending from the salivary glands to the pelvis, following the administration of a targeted 7.4±10% GBq of ^177Lu-PSMA-I&T at cycle 1. SPECT/CT imaging was performed at four timepoints: 4 h, 24 h, 48 h, and 168 h post-injection. Additionally, a subset of patients imaged at Cycle 1 (16 out of 27), were also imaged at Cycle 3 (Table 2).
The imaging data was analyzed using Invicro's VivoQuant software, a validated software used in a 21 CFR § 11-compliant workflow. The general quantification approach was based on the principles detailed in the Medical Internal Radiation Dose (MIRD) Pamphlet No. 16, No 23, and No 26 as appropriate.
Volume of interest (VOI) (kidneys, bladder, liver, lumbar vertebrae L2-L4, lacrimal glands, salivary glands [parotid and submandibular glands], and whole body) were delineated on each dataset by a trained image analyst. […] Organs were segmented either by drawing the entire contour of the organ, or by placing a sphere in a representative region of the organ and then multiplying by the organ's effective mass (based on patient's height and weight). Segmentation methods for each organ are specified in Table 3 and were consistently applied to each patient.
Clearance of the radiopharmaceutical was derived from a data-appropriate fit of each organ's TAC. Depending on the TAC's shape, the data was fitted with the sum of one, two, or three exponentials, or using a rise and fall model. Fitting was performed with in-house Python software. TIACs were calculated through analytical integration of the curve fit extrapolated to infinity. […] A whole-body TAC was derived from delineating the imaged body. The remainder activity was determined by subtracting the cumulative organ TIACs from the whole body TIAC.
Organ TIACs were input into OLINDA 2.2.3 for the computation of organ and whole-body absorbed doses, using International Commission on Radiological Protection (ICRP)-103 weighing factors. The ICRP-89 derived male phantom was used for dose estimation. Organs and body mass as defined by ICRP-89 were scaled based on height and mass using patient effective mass.^4 The voiding bladder model as implemented in OLINDA was used to determine bladder TIAC, assuming a voiding interval of 4 hours. The human alimentary tract model (HAT model) described in ICRP 100 and implemented in OLINDA was used to compute doses to the small intestine, right colon, left colon and rectum for patients showing clearance through the GI tract. The fraction of injected activity (fIA) cleared via the GI tract was determined by taking the peak fIA in the GI tract over all the imaging timepoints. […] The Red Marrow mass in L2-L4 was assumed to be 6.7% of the total red marrow mass.

[1] = Adrenals, 16 patients imaged at cycle 1 and 3
[2] = Brain, 16 patients imaged at cycle 1 and 3
[3] = Cycle 1, target activity 7.4±10% GBq, patients with mCRPC
[4] = Esophagus, 16 patients imaged at cycle 1 and 3
[5] = Eyes, 16 patients imaged at cycle 1 and 3
[6] = Gallbladder wall, 16 patients imaged at cycle 1 and 3
[7] = Heart wall, 16 patients imaged at cycle 1 and 3
[8] = Kidneys, 16 patients imaged at cycle 1 and 3
[9] = Lacrimal Glands (OLINDA sphere model), 16 patients imaged at cycle 1 and 3
[10] = Lacrimal Glands, N = 16, OLINDA sphere model
[11] = Left colon, 16 patients imaged at cycle 1 and 3
[12] = Liver, 16 patients imaged at cycle 1 and 3
[13] = Lungs, 16 patients imaged at cycle 1 and 3
[14] = Osteogenic cells, 16 patients imaged at cycle 1 and 3
[15] = Pancreas, 16 patients imaged at cycle 1 and 3

## O=C([O-])CC[C@H](NC(=O)N[C@@H](CCCCNC(=O)CCCCCCC(=O)NCCCC[C@@H](NC(=O)[C@@H](Cc1ccccc1)NC(=O)[C@@H](Cc1ccc(O)c(I)c1)NC(=O)CC[C@H](C(=O)[O-])N1CCN(CC(=O)[O-])CCN(CC(=O)[O-])CCN(CC(=O)[O-])CC1)C(=O)[O-])C(=O)[O-])C(=O)[O-].[177Lu+3].[H+].[H+].[H+].[H+].[H+] [^177Lu-PSMA I&T, (3S,7S,26R,29R,32R,37R)-29-benzyl-32-(4-hydroxy-3-iodobenzyl)-5,13,20,28,31,34-hexaoxo-37-(4,7,10-tris(carboxymethyl)-1,4,7,10-tetraazacyclododecan-1-yl)-4,6,12,21,27,30,33-heptaazaheptatriacontane-1,3,7,26,37-pentacarboxylic acid; lutetium-177 (III)]
[1]
  Absorbed Dose in Cycle 1, Mean: 0.02 Gy/GBq
  Absorbed Dose in Cycle 1, max: 0.08 Gy/GBq
  Absorbed Dose in Cycle 1, min: 0.01 Gy/GBq
Adrenals, Cycle 1
  Absorbed Dose, Mean: 0.02 Gy/GBq
  Absorbed Dose, max: 0.08 Gy/GBq
  Absorbed Dose, median: 0.02 Gy/GBq
  Absorbed Dose, min: 0.01 Gy/GBq
Adrenals, N = 16
  Absorbed Dose in Cycle 1, Mean: 0.02 Gy/GBq
  Absorbed Dose in Cycle 1, max: 0.08 Gy/GBq
  Absorbed Dose in Cycle 1, min: 0.01 Gy/GBq
[2]
  Absorbed Dose in Cycle 1, Mean: 0.01 Gy/GBq
  Absorbed Dose in Cycle 1, max: 0.07 Gy/GBq
  Absorbed Dose in Cycle 1, min: 0.00 Gy/GBq
Brain, Cycle 1
  Absorbed Dose, Mean: 0.01 Gy/GBq
  Absorbed Dose, max: 0.07 Gy/GBq
  Absorbed Dose, median: 0.01 Gy/GBq
  Absorbed Dose, min: 0.00 Gy/GBq
Brain, N = 16
  Absorbed Dose in Cycle 1, Mean: 0.01 Gy/GBq
  Absorbed Dose in Cycle 1, max: 0.07 Gy/GBq
  Absorbed Dose in Cycle 1, min: 0.00 Gy/GBq
Cycle 1, image-based, L2-L4
  mean red marrow (bone marrow) absorbed radiation dose: 0.08±0.12 Gy/GBq
Cycle 1, remaining 20 patients, excluding six high-marrow-dose cases and the superscan patient
  mean red marrow absorbed dose: 0.02±0.02 Gy/GBq
Cycle 1, target activity 7.4±10% GBq, patient 12-004 excluded
  absorbed radiation dose, salivary glands (mean ± SD): 0.19±0.16 Gy/GBq
[3]
  absorbed radiation dose, kidneys (mean ± SD): 0.41±0.15 Gy/GBq
  absorbed radiation dose, lacrimal glands (mean ± SD): 0.40±0.36 Gy/GBq
  absorbed radiation dose, left colon (mean ± SD): 0.47±0.31 Gy/GBq
  absorbed radiation dose, rectum (mean ± SD): 0.44±0.30 Gy/GBq
  absorbed radiation dose, urinary bladder (mean ± SD): 0.41±0.05 Gy/GBq
[4]
  Absorbed Dose in Cycle 1, Mean: 0.01 Gy/GBq
  Absorbed Dose in Cycle 1, max: 0.07 Gy/GBq
  Absorbed Dose in Cycle 1, min: 0.00 Gy/GBq
Esophagus, Cycle 1
  Absorbed Dose, Mean: 0.02 Gy/GBq
  Absorbed Dose, max: 0.07 Gy/GBq
  Absorbed Dose, median: 0.01 Gy/GBq
  Absorbed Dose, min: 0.00 Gy/GBq
Esophagus, N = 16
  Absorbed Dose in Cycle 1, Mean: 0.01 Gy/GBq
  Absorbed Dose in Cycle 1, max: 0.07 Gy/GBq
  Absorbed Dose in Cycle 1, min: 0.00 Gy/GBq
[5]
  Absorbed Dose in Cycle 1, Mean: 0.01 Gy/GBq
  Absorbed Dose in Cycle 1, max: 0.07 Gy/GBq
  Absorbed Dose in Cycle 1, min: 0.00 Gy/GBq
Eyes, Cycle 1
  Absorbed Dose, Mean: 0.01 Gy/GBq
  Absorbed Dose, max: 0.07 Gy/GBq
  Absorbed Dose, median: 0.01 Gy/GBq
  Absorbed Dose, min: 0.00 Gy/GBq
Eyes, N = 16
  Absorbed Dose in Cycle 1, Mean: 0.01 Gy/GBq
  Absorbed Dose in Cycle 1, max: 0.07 Gy/GBq
  Absorbed Dose in Cycle 1, min: 0.00 Gy/GBq
[6]
  Absorbed Dose in Cycle 1, Mean: 0.02 Gy/GBq
  Absorbed Dose in Cycle 1, max: 0.07 Gy/GBq
  Absorbed Dose in Cycle 1, min: 0.00 Gy/GBq
Gallbladder wall, Cycle 1
  Absorbed Dose, Mean: 0.02 Gy/GBq
  Absorbed Dose, max: 0.07 Gy/GBq
  Absorbed Dose, median: 0.01 Gy/GBq
  Absorbed Dose, min: 0.00 Gy/GBq
Gallbladder wall, N = 16
  Absorbed Dose in Cycle 1, Mean: 0.02 Gy/GBq
  Absorbed Dose in Cycle 1, max: 0.07 Gy/GBq
  Absorbed Dose in Cycle 1, min: 0.00 Gy/GBq
[7]
  Absorbed Dose in Cycle 1, Mean: 0.01 Gy/GBq
  Absorbed Dose in Cycle 1, max: 0.07 Gy/GBq
  Absorbed Dose in Cycle 1, min: 0.00 Gy/GBq
Heart wall, Cycle 1
  Absorbed Dose, Mean: 0.02 Gy/GBq
  Absorbed Dose, max: 0.07 Gy/GBq
  Absorbed Dose, median: 0.01 Gy/GBq
  Absorbed Dose, min: 0.00 Gy/GBq
Heart wall, N = 16
  Absorbed Dose in Cycle 1, Mean: 0.01 Gy/GBq
  Absorbed Dose in Cycle 1, max: 0.07 Gy/GBq
  Absorbed Dose in Cycle 1, min: 0.00 Gy/GBq
[8]
  Absorbed Dose in Cycle 1, Mean: 0.41 Gy/GBq
  Absorbed Dose in Cycle 1, max: 0.81 Gy/GBq
  Absorbed Dose in Cycle 1, min: 0.17 Gy/GBq
Kidneys, Cycle 1
  Absorbed Dose, Mean: 0.41 Gy/GBq
  Absorbed Dose, max: 0.81 Gy/GBq
  Absorbed Dose, median: 0.37 Gy/GBq
  Absorbed Dose, min: 0.17 Gy/GBq
Kidneys, N = 16
  Absorbed Dose in Cycle 1, Mean: 0.41 Gy/GBq
  Absorbed Dose in Cycle 1, max: 0.81 Gy/GBq
  Absorbed Dose in Cycle 1, min: 0.17 Gy/GBq
[9]
  Absorbed Dose in Cycle 1, Mean: 0.39 Gy/GBq
  Absorbed Dose in Cycle 1, max: 1.19 Gy/GBq
  Absorbed Dose in Cycle 1, min: 0.04 Gy/GBq
Lacrimal Glands, Cycle 1
  Absorbed Dose, Mean: 0.40 Gy/GBq
  Absorbed Dose, max: 1.19 Gy/GBq
  Absorbed Dose, median: 0.26 Gy/GBq
  Absorbed Dose, min: 0.04 Gy/GBq
[10]
  Absorbed Dose in Cycle 1, Mean: 0.39 Gy/GBq
  Absorbed Dose in Cycle 1, max: 1.19 Gy/GBq
  Absorbed Dose in Cycle 1, min: 0.04 Gy/GBq
[11]
  Absorbed Dose in Cycle 1, Mean: 0.52 Gy/GBq
  Absorbed Dose in Cycle 1, max: 1.53 Gy/GBq
  Absorbed Dose in Cycle 1, min: 0.01 Gy/GBq
Left colon, Cycle 1
  Absorbed Dose, Mean: 0.47 Gy/GBq
  Absorbed Dose, max: 1.53 Gy/GBq
  Absorbed Dose, median: 0.41 Gy/GBq
  Absorbed Dose, min: 0.01 Gy/GBq
Left colon, N = 16
  Absorbed Dose in Cycle 1, Mean: 0.52 Gy/GBq
  Absorbed Dose in Cycle 1, max: 1.53 Gy/GBq
  Absorbed Dose in Cycle 1, min: 0.01 Gy/GBq
[12]
  Absorbed Dose in Cycle 1, Mean: 0.04 Gy/GBq
  Absorbed Dose in Cycle 1, max: 0.10 Gy/GBq
  Absorbed Dose in Cycle 1, min: 0.01 Gy/GBq
Liver, Cycle 1
  Absorbed Dose, Mean: 0.04 Gy/GBq
  Absorbed Dose, max: 0.10 Gy/GBq
  Absorbed Dose, median: 0.03 Gy/GBq
  Absorbed Dose, min: 0.01 Gy/GBq
Liver, N = 16
  Absorbed Dose in Cycle 1, Mean: 0.04 Gy/GBq
  Absorbed Dose in Cycle 1, max: 0.10 Gy/GBq
  Absorbed Dose in Cycle 1, min: 0.01 Gy/GBq
[13]
  Absorbed Dose in Cycle 1, Mean: 0.01 Gy/GBq
  Absorbed Dose in Cycle 1, max: 0.07 Gy/GBq
  Absorbed Dose in Cycle 1, min: 0.00 Gy/GBq
Lungs, Cycle 1
  Absorbed Dose, Mean: 0.01 Gy/GBq
  Absorbed Dose, max: 0.07 Gy/GBq
  Absorbed Dose, median: 0.01 Gy/GBq
  Absorbed Dose, min: 0.00 Gy/GBq
Lungs, N = 16
  Absorbed Dose in Cycle 1, Mean: 0.01 Gy/GBq
  Absorbed Dose in Cycle 1, max: 0.07 Gy/GBq
  Absorbed Dose in Cycle 1, min: 0.00 Gy/GBq
[14]
  Absorbed Dose in Cycle 1, Mean: 0.04 Gy/GBq
  Absorbed Dose in Cycle 1, max: 0.19 Gy/GBq
  Absorbed Dose in Cycle 1, min: 0.00 Gy/GBq
Osteogenic cells, Cycle 1
  Absorbed Dose, Mean: 0.05 Gy/GBq
  Absorbed Dose, max: 0.29 Gy/GBq
  Absorbed Dose, median: 0.02 Gy/GBq
  Absorbed Dose, min: 0.00 Gy/GBq
Osteogenic cells, N = 16
  Absorbed Dose in Cycle 1, Mean: 0.04 Gy/GBq
  Absorbed Dose in Cycle 1, max: 0.19 Gy/GBq
  Absorbed Dose in Cycle 1, min: 0.00 Gy/GBq
[15]
  Absorbed Dose in Cycle 1, Mean: 0.02 Gy/GBq
  Absorbed Dose in Cycle 1, max: 0.07 Gy/GBq
  Absorbed Dose in Cycle 1, min: 0.00 Gy/GBq
Pancreas, Cycle 1
  Absorbed Dose, Mean: 0.02 Gy/GBq
  Absorbed Dose, max: 0.07 Gy/GBq
  Absorbed Dose, median: 0.01 Gy/GBq
